Legend:
[1] = test system: CD36^+/+ and CD36^−/− mice; test: Myocardial oxidative metabolism by μPET with [11C]-acetate; type: in vivo; conditions: in words
Experimental: (§1) Experimental model of IHD: Transient left coronary artery ligation in vivo. Mice were subjected to a transient LCAL surgery as described before, with minor modifications [Tarnayski et al., 2004]. Mice were injected i.p. with buprenorphine (0.05 mg/kg) and placed in an induction chamber with inhalation anesthesia comprised of 3% isoflurane mixed with 100% oxygen. Mice were intubated with a blunt ended 20-gauge catheter into the trachea via the mouth and mechanically ventilated at a tidal volume of 7 ml/kg at 130 respirations/min with a MiniVent™ mouse ventilator (model 845, Harvard Apparatus, Saint-Laurent, QC, Canada). Anesthesia was maintained with 1.5-2% isoflurane and the animals were kept warm using electrical heating pads during the surgical procedure. The chest was opened by a horizontal incision through the skin and muscle layers at the third intercostal space exposing the left side of the heart. […] Visual blanching distal to the coronary occlusion confirmed myocardial ischaemia. Lidocaine (6 mg/kg) was administered i.p. just following occlusion and prior to reperfusion. […]
Imaging Data Analysis. For [^11C]-acetate images, dynamic series of 25 frames each were sorted out whereas 27 frames were used for ^18FDG and ^18FTHA imaging, and were reconstructed and analyzed using multicompartmental analysis [Menard et al., 2009] or the Patlak method for FTHA [Patlak and Blasberg, 1985]. […]

[2] = test system: circulating blood leukocytes; test: Opsonized zymosan-stimulated luminol-enhanced whole blood chemiluminescence; type: in vivo; conditions: 48 hours reperfusion; CD36^+/+ mice; 10-week pretreatment; p<0.05
Experimental: as §1, with “reperfusion. After 30 minutes, the PE10 tubing was removed allowing reperfusion.” for “reperfusion.”
Whole blood chemiluminescence. […] The chemiluminescence signals were recorded using a computer-assisted luminometer (model 500; Chronolog Corp, Havertown, Pa., USA). Chemiluminescence intensities were measured as the peak amplitude in arbitrary units.

HAIC-2MeDTrp-DLys-Trp-DPhe-Lys-NH2 [EP 80317]
myocardial oxidative metabolism (k2) ([1]; CD36^+/+ mice pre-treated): reduced
myocardial oxidative metabolism (k2) ([1]; CD36^−/− mice): unaffected
reduction of circulating blood leukocyte priming and/or activation [2]: 53%
